In patent publication US20230074209A1, “METHOD AND DEVICE FOR PROVIDING DRUG RECOMMENDATION” (Cancerfree biotech Ltd., priority 2021, published 2023):

What was measured:
[1] = tested on: patient's CTC-derived organoid cultures; test: Drug sensitivity assay of CTC-derived organoid cultures (CellTiter Glo ATP, relative cell viability); type: cell-based, human; conditions: for CTC sensitivity profiling: CTCs of patient; for relative cell viability: CTC-derived organoid cultures of patient, one week co-culture
Excerpt: In some embodiments, first, a liquid biopsy of the patient is obtained, and CTCs are then isolated from the liquid biopsy, and the CTCs are then expanded to obtain the CTC-derived organoid cultures. The liquid biopsy is, for example, a blood sample, such as a peripheral venous blood sample. In one example, the CTCs were isolated from the liquid biopsy, and the biomimetic cell culture system was then used to expand the CTCs in vitro to form the CTC-derived organoid cultures. In one example, Ficoll-Paque centrifugation was used to isolate peripheral blood mononuclear cells (PBMCs) containing the CTCs from the blood sample. The cells were then seeded onto a substrate of binary colloidal crystal (BCC) containing silica and polymethyl methacrylate (PMMA), and cultured in the biomimetic cell culture system for three weeks, with replacement of culture medium every four days. The expansion of the organoid cultures could be monitored by optical microscopy, and the presence of the CTCs could be confirmed by EpCAM and CD45 immunofluorescence staining. The CTC-derived organoid cultures were positive for EpCAM and negative for CD45 in the immunofluorescence staining
In one example, the CTC-derived organoid cultures were resuspended in a culture medium, and then divided into aliquots and loaded to 96-well plates for drug sensitivity assays. The aliquots were divided into a control group (not reacted with a drug) and drug test groups (respectively reacted with different drugs). For advanced pancreatic ductal adenocarcinoma, gemcitabine, 5-fluorouracil (5-FU), erlotinib, irinotecan, olaparib, oxaliplatin, paclitaxel, palbociclib and trametinib were selected as candidate drugs and tested against the CTC-derived organoid cultures at concentrations according to the clinical pharmacokinetics of each of the drugs, in order to mimic the effect of a clinical dose in patients. Different drug treatments were respectively added to each of the wells in the 96-well plates, after which cultures were continued to co-culture for one week. At the end of the assay period, viable cell counts were measured using cytosolic adenosine triphosphate (ATP) abundance (CellTiter Glo, Promega, Madison Wis., USA) via a luminometer (Promega). The relative cell viabilities of the CTC-derived organoid cultures respectively corresponding to the 9 candidate drugs were calculated by the formula: relative cell viability=(viable cell counts of the drug test group/viable cell counts of the control group)×100%. Lower cell viability following application of test treatments was indicative of greater drug sensitivity and better anti-tumor effect. However, the present disclosure is not limited to the above example, and other test methods or calculation methods can be used to obtain the relative cell viabilities.

[2] = tested on: pancreatic cancer; test: Clinical course of individual pancreatic cancer patients under treatment; type: in vivo, human; conditions: patient
Description: In one example, clinical response to treatment in patients was evaluated using Response Evaluation Criteria in Solid Tumors (RECIST) version 1.1 criteria.

[3] = locally advanced pancreatic cancer
[4] = August 2019, 12 cycles of chemotherapy plus radiotherapy 44 Gy/20 Fx

With `O=C1[O][Pt]2([NH][C@@H]3CCCC[C@H]3[NH]2)[O]C1=O` [oxaliplatin] the CTC sensitivity profiling [1, 3] was “resistance”.

`CC(=O)O[C@H]1C(=O)[C@@]2(C)[C@H]([C@H](OC(=O)c3ccccc3)[C@]3(O)C[C@H](OC(=O)[C@H](O)[C@@H](NC(=O)c4ccccc4)c4ccccc4)C(C)=C1C3(C)C)[C@]1(OC(C)=O)CO[C@@H]1C[C@@H]2O` [paclitaxel] was tested, and the CTC sensitivity profiling [1, 3] was “resistance”.

`CCc1c2c(nc3ccc(OC(=O)N4CCC(N5CCCCC5)CC4)cc13)-c1cc3c(c(=O)n1C2)COC(=O)[C@]3(O)CC` [irinotecan] was tested, and the CTC sensitivity profiling [1, 3] was “resistance”.

`C#Cc1cccc(Nc2ncnc3cc(OCCOC)c(OCCOC)cc23)c1` [erlotinib] was tested, and the relative cell viability ([1]; locally advanced pancreatic cancer, clinical-PK concentration) was 27.8%.

In the case of `O=C(c1cc(Cc2n[nH]c(=O)c3ccccc23)ccc1F)N1CCN(C(=O)C2CC2)CC1` [olaparib], the relative cell viability ([1]; metastatic pancreatic cancer) is reported as 16.7%.

In the case of `O=c1[nH]cc(F)c(=O)[nH]1` [5-FU, 5-fluorouracil], the CTC sensitivity profiling [1, 3] is reported as “resistance”.

In the case of FOLFIRINOX, the “abdominal CT scan response, liver metastases” value [2, 4] is reported as “partial response (PR)”, the “abdominal CT scan response, pancreatic mass” value [2, 4] is reported as “stable disease (SD)” and the “follow-up CT scan response, pancreatic tumor” value ([2]; November 2019, with liver, bone and peritoneal seeding) is reported as “progressive disease (PD)”.
